According to the supplement of paper PMC10307832:

What was measured:
Assay in all cases: relative viability (nuclei count vs DMSO), 5 days (fraction); higher = more cells survive
IDH-C35 + Dasatinib = compound: Cc1ccccc1C(C(=O)NC1CCCCC1)N(C(=O)Cn1ccnc1C)c1cccc(F)c1 [IDH-C35] + Cc1nc(Nc2ncc(C(=O)Nc3c(C)cccc3Cl)s2)cc(N2CCN(CCO)CC2)n1 [Dasatinib] (partner 0.075 µM)
Summary of the method: (§1)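 Five library-drug doses in √10 steps were combined with a fixed anchor-drug dose, or a single drug was given alone, by pin tool to lung cancer cell lines in 1536-well plates the day after seeding. Nuclei were stained and counted after 5 days. Relative viability is the nuclei count in treated wells over that in vehicle wells, taken as the median of duplicate plates.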

[1] = compound: CC1=C(C(=NN1)C)CC2=C(C3=C(S2)N(C(=O)N(C3=O)C)CC(C)C)C(=O)N4C[C@@H](CO4)O + Nc1ncn([C@H]2C[C@H](O)[C@@H](CO)O2)c(=O)n1 [Decitabine] (partner 2 µM)
Summary of the method: as §1

IDH-C35 + Luminespib = compound: Cc1ccccc1C(C(=O)NC1CCCCC1)N(C(=O)Cn1ccnc1C)c1cccc(F)c1 [IDH-C35] + CCNC(=O)c1noc(-c2cc(C(C)C)c(O)cc2O)c1-c1ccc(CN2CCOCC2)cc1 [Luminespib] (partner 0.01 µM)
Summary of the method: as §1

[2] = compound: CC1=C(C(=NN1)C)CC2=C(C3=C(S2)N(C(=O)N(C3=O)C)CC(C)C)C(=O)N4C[C@@H](CO4)O + CC(C)C[C@H](NC(=O)[C@H](Cc1ccccc1)NC(=O)c1cnccn1)B(O)O [Bortezomib] (partner 0.002 µM)
Summary of the method: as §1

Row | Cell Line | relative viability (IDH-C35 + Dasatinib; first compound 0.08 µM) | relative viability (IDH-C35 + Dasatinib; first compound 0.253 µM) | relative viability (IDH-C35 + Dasatinib; first compound 0.8 µM) | relative viability (IDH-C35 + Dasatinib; first compound 2.53 µM) | relative viability (IDH-C35 + Dasatinib; first compound 8 µM) | relative viability ([1]; first compound 0.0025 µM) | relative viability ([1]; first compound 0.007906 µM) | relative viability ([1]; first compound 0.025 µM) | relative viability ([1]; first compound 0.07906 µM) | relative viability ([1]; first compound 0.25 µM) | relative viability (IDH-C35 + Luminespib; first compound 0.08 µM) | relative viability (IDH-C35 + Luminespib; first compound 0.253 µM) | relative viability (IDH-C35 + Luminespib; first compound 0.8 µM) | relative viability (IDH-C35 + Luminespib; first compound 2.53 µM) | relative viability (IDH-C35 + Luminespib; first compound 8 µM) | relative viability ([2]; first compound 0.0025 µM) | relative viability ([2]; first compound 0.007906 µM) | relative viability ([2]; first compound 0.025 µM) | relative viability ([2]; first compound 0.07906 µM) | relative viability ([2]; first compound 0.25 µM)
1 | LOU-NH91 | 0.554 | 0.538 | 0.558 | 0.531 | 0.557 | 0.83 | 0.798 | 0.839 | 0.864 | 0.823 | 0.331 | 0.368 | 0.297 | 0.354 | 0.328 | 0.473 | 0.486 | 0.546 | 0.423 | 0.476
2 | LU99A | 0.684 | 0.552 | 0.586 | 0.639 | 0.542 | 0.784 | 0.979 | 0.825 | 0.901 | 0.976 | 0.244 | 0.286 | 0.239 | 0.236 | 0.25 | 1.37 | 1.21 | 1.07 | 1.14 | 1.2
3 | LXF-289 | 0.276 | 0.25 | 0.252 | 0.221 | 0.214 | 0.432 | 0.395 | 0.354 | 0.393 | 0.443 | 0.512 | 0.631 | 0.654 | 0.697 | 0.676 | 1 | 0.972 | 1 | 1.02 | 1.07
4 | NCI-H23 | 0.779 | 0.718 | 0.738 | 0.901 | 0.864 | 0.307 | 0.329 | 0.289 | 0.345 | 0.334 | 0.207 | 0.224 | 0.201 | 0.202 | 0.227 | 1.07 | 1.24 | 0.848 | 0.964 | 1.33
5 | NCI-H322M | 0.244 | 0.253 | 0.26 | 0.247 | 0.243 | 0.63 | 0.736 | 0.698 | 0.659 | 0.707 | 0.921 | 0.784 | 0.826 | 0.833 | 0.942 | 1.34 | 1.19 | 1.33 | 1.23 | 1.19
6 | NCI-H441 | 0.629 | 0.753 | 0.536 | 0.673 | 0.541 | 0.215 | 0.255 | 0.298 | 0.267 | 0.272 | 0.26 | 0.306 | 0.293 | 0.293 | 0.399 | 0.822 | 0.34 | 0.626 | 0.636 | 0.707
7 | NCI-H460 | 0.379 | 0.512 | 0.49 | 0.479 | 0.495 | 0.512 | 0.604 | 0.502 | 0.494 | 0.557 | 0.0343 | 0.0424 | 0.0346 | 0.0408 | 0.0379 | 1.1 | 1.37 | 0.984 | 1.07 | 1.28
8 | NCI-H520 | 0.191 | 0.159 | 0.202 | 0.181 | 0.217 | 0.476 | 0.448 | 0.45 | 0.423 | 0.371 | 0.26 | 0.189 | 0.27 | 0.21 | 0.269 | 0.646 | 0.413 | 0.192 | 0.23 | 0.28
9 | NCI-H596 | 0.588 | 0.759 | 0.693 | – | 0.56 | 1.11 | 1.1 | 1.1 | 0.989 | 1.06 | 1.04 | 0.974 | 1.22 | – | 0.97 | 0.997 | 1.11 | 1.05 | 1.15 | 0.98
10 | NCI-H647 | 0.194 | 0.204 | 0.198 | 0.223 | 0.192 | 0.48 | 0.44 | 0.298 | 0.535 | 0.321 | 0.146 | 0.256 | 0.357 | 0.241 | 0.126 | 1.27 | 1.09 | 0.802 | 1.11 | 1.1
11 | NCI-H650 | 0.475 | 0.468 | 0.462 | – | 0.433 | 0.321 | 0.39 | 0.336 | 0.329 | 0.361 | 0.783 | 0.766 | 0.79 | – | 0.799 | 1.02 | 0.714 | 0.671 | 0.757 | 0.825
12 | NCI-H661 | 0.898 | 0.945 | 0.868 | 0.974 | 0.79 | 0.521 | 0.623 | 0.546 | 0.542 | 0.58 | 0.905 | 0.907 | 0.963 | 0.882 | 0.914 | 1 | 1.01 | 0.692 | 0.882 | 0.635
13 | NCI-H727 | 0.514 | 0.315 | 0.366 | 0.388 | 0.446 | 0.807 | 0.915 | 0.862 | 0.943 | 0.969 | 0.27 | 0.398 | 0.39 | 0.407 | 0.33 | 0.919 | 0.583 | 0.694 | 0.716 | 0.873
14 | NCI-H838 | 0.343 | 0.303 | 0.298 | 0.32 | 0.303 | 0.447 | 0.489 | 0.43 | 0.455 | 0.444 | 0.319 | 0.3 | 0.266 | 0.331 | 0.24 | 0.88 | 1.13 | 0.786 | 0.738 | 0.929
15 | NCI-H1355 | 0.76 | 0.727 | 0.667 | 0.651 | 0.742 | 0.443 | 0.375 | 0.346 | 0.324 | 0.332 | 0.703 | 0.72 | 0.693 | 0.722 | 0.72 | 1.2 | 1.28 | 1.24 | 1.15 | 1.23
16 | NCI-H1437 | 0.442 | 0.448 | 0.432 | 0.314 | 0.308 | 0.532 | 0.59 | 0.519 | 0.612 | 0.548 | 1.08 | 1.04 | 1.06 | 1.06 | 1.1 | 0.669 | 0.568 | 0.516 | 0.441 | 0.601
